{"source": "patent US4283422A", "about": "(priority 1979, dated 1981)", "key": {"Newcastle disease virus": {"test_system": "Newcastle disease virus", "conditions": "Koji Aigami et al., J. of Medicinal Chemistry, vol. 19, 536 (1976); cited from earlier work"}, "[1]": {"test_system": "Influenza A/PR/3/34 (HO, Nl) strain", "assay": "microbe, parasite or virus in culture", "format": "cell-based", "conditions": "for HA-titer / MIC: MDCK cells; for HA-titer: 34° C., 3 days, control 256; for MIC: 72 h, Influenza virus; for inhibitory effects on Influenza virus growth: comparison of the two compounds, in words"}, "MDCK cells": {"test_system": "MDCK cells", "conditions": "3 days, microscopic CTE"}, "in vitro": {"assay": "in vitro", "conditions": "dog, mdck"}}, "note": "Counter-ions that a name gives are not always drawn. Like-named read-outs stand apart in the source and are kept apart here.", "data": [{"smiles": "NC12CCCC3CC(CCC31)C2", "note": "(stereo not shown) [3-amino-4-homoisotwistane hydrochloride]", "values": [{"measurement": "antiviral activity against Newcastle disease virus", "setting": "Newcastle disease virus", "value": "have antiviral activity against Newcastle disease virus"}]}, {"smiles": "CN(C)C12CCCC3CC(CCC31)C2", "note": "(stereo not shown)", "values": [{"measurement": "HA-titer", "setting": "[1]; 12.5 mcg/ml", "value": 64}, {"measurement": "HA-titer", "setting": "[1]; 25.0 mcg/ml", "value": 64}, {"measurement": "HA-titer", "setting": "[1]; 50.0 mcg/ml", "value": "< 4"}, {"measurement": "MIC", "setting": "[1]", "value": "< 12.5", "unit": "µg/mL"}, {"measurement": "inhibitory effects on Influenza virus growth", "setting": "[1]", "value": "equivalent inhibitory effects on Influenza virus growth"}, {"measurement": "Cytotoxicity", "setting": "MDCK cells; 25.0 mcg/ml", "value": "(±) (CTE is less than 10% of cells.)"}, {"measurement": "Cytotoxicity", "setting": "MDCK cells; 50.0 mcg/ml", "value": "(+) (CTE is more than 10% and less than 50% of cells.)"}, {"measurement": "MNTC at 72 h", "setting": "in vitro", "value": 25, "unit": "µg/mL"}]}, {"smiles": "NC12CC3CC(CC(C3)C1)C2", "note": "[Amantadine hydrochloride]", "values": [{"measurement": "HA-titer", "setting": "[1]; 12.5 mcg/ml", "value": 64}, {"measurement": "HA-titer", "setting": "[1]; 25.0 mcg/ml", "value": "< 4"}, {"measurement": "MIC", "setting": "[1]", "value": "< 12.5", "unit": "µg/mL"}, {"measurement": "inhibitory effects on Influenza virus growth", "setting": "[1]", "value": "equivalent inhibitory effects on Influenza virus growth"}, {"measurement": "Cytotoxicity", "setting": "MDCK cells; 12.5 mcg/ml", "value": "(±) (CTE is less than 10% of cells.)"}, {"measurement": "Cytotoxicity", "setting": "MDCK cells; 25.0 mcg/ml", "value": "(+) (CTE is more than 10% and less than 50% of cells.)"}, {"measurement": "MNTC at 72 h", "setting": "in vitro", "value": 12.5, "unit": "µg/mL"}]}]}
